Measured values reported in patent publication US20230151100A1, “Method of Selecting Patients for Treatment with a Combination of an AXL Inhibitor and an Immune Checkpoint Modulator” (BERGENBIO ASA, priority 2020, published 2023).

What was measured:
KPL9-3-1 tumor cells = test: KPL9-3-1 subcutaneous allograft tumor growth; assay type: in vivo, mouse (C57BL/6J); conditions: KPL9-3-1 tumors; BGB324 50 mg/kg oral gavage twice daily, anti-PD-1 10 mg/kg i.p., alone or in combination; 3 weeks
Procedure: (§1) Control group were treated with control IgG (10 mg/kg) and vehicle (50 mg/kg). Tumor growth was measured every 3 days. […] The ratio of observed cell numbers to random expectation estimated by Roie index through chi-square test. +++ (Roien, P<0.05) represents highly enriched, ++ (1.2≤Ro/e<3, P<0.05) represents enriched, + (0.8≤Ro/e<1.2, P<0.05) represents weakly enriched, − (0<Ro/e<0.8, P<0.05) represents not significant or reduced.
For subcutaneous allografts, 1×10^6 cells in 100 ul phosphate buffered saline (PBS) were injected into the right dorsal flanks of 6-8 wks old mice. For xenografts growing on humanized mice, 1.5×10^6 cells in 100 ul phosphate buffered saline (PBS) were injected into the right dorsal flanks of reconstituted humanized mice.
Tumor bearing mice were randomly assigned into treatment groups when the tumor grew to around 100-150 mm^3. For each treatment group, 5 mice were assigned. 10 mg/kg anti-PD-1 (BioXCell, Cat #BE0146) treatment was given intraperitoneally on day 0, day 4 and day 7 after innoculation. The control group was treated with 10 mg/kg rat IgG2a isotype control (BioX Cell, Cat #BE0089) at the same day of PD-1 treatment, intraperitoneally. For the tumor growth measurement experiment, mice were treated for 3 weeks. […] Tumor volumes were measured by length (a), width (b) and height (h) in every 3 days and calculated as tumor volume=abh. […]

OT-1 CD8^+ T cells = test: BMDC co-culture with OT-1 CD8^+ T cells stimulated with ovalbumin, TCF1 expression by flow cytometry; assay type: cell-based, mouse; conditions: co-cultures of BMDC with OT-1 CD8^+ T cells stimulated by ovalbumin
[1] = system: Kras^G12D, p53^−/− STK11^−/− mutant (KPL9-3) mouse lung cancer-derived cells; test: Subcutaneous KPL9-3 tumors in immune-competent mice, tumor volume; assay type: in vivo, mouse (C57Bl/6); conditions: anti-PD1 10 mg/kg i.p. twice a week for two weeks, BGB324 50 mg/kg oral gavage twice daily, or both
Procedure: Kras^G12D, p53^−/− mutant (KP9-1) or Kras^G12D, p53^−/− STK11^−/− mutant (KPL9-3) mouse lung cancer-derived cell lines were prepared using standard techniques known in the art. KP9-1 or KPL9-3 cells were propagated at sub-confluence and split on a regular basis.
Each animal was weighed before cell implantation. Injection of cells was performed after anesthetizing of the mice. The cell lines discussed above were injected subcutaneously into immune-competent mice (C57Bl/6 strain).
Mice were treated with either placebo or anti-PD1 therapeutic (200 μg/mouse, intraperitoneal, twice a week for two weeks).Tumor volume was assessed using hand held callipers and mouse weight were followed.
The Kras^G12D, p53^−/− STK11^−/− mutant (KPL9-3) mouse lung cancer-derived cells described above were implanted subcutaneously in immune-competent mice (C57Bl/6 strain) using the same protocol as described above.
Mice were treated with either placebo, anti-PD1 therapeutic (10 mg/kg, intraperitoneal, twice a week for two weeks), BGB324 (50 mg/kg, oral gavage, twice daily) or a combination of both drugs. Tumor volumes were measured.

[2] = system: Kras^G12D, p53 WT STK11^−/− mutant human A549 lung cancer cells; test: A549 xenografts in humanized mice, tumor volume; assay type: in vivo; conditions: anti-PD1 10 mg/kg i.p. 3 dosages, BGB324 50 mg/kg oral gavage twice daily for 3 weeks, or both
Procedure: Human non-small cell lung cancer (NSCLC) cells Kras^G12D, p53 WT STK11^−/− mutant human A549 lung cancer cells were cultured using standard protocols.
Each animal was weighed before cell implantation. Injection of the cells was performed after anesthetizing of the mice. Kras^G12D, p53 WT STK11^−/− mutant human A549 lung cancer cells were implanted subcutaneously in humanized immune-deficient mice.
Mice were treated with either placebo, anti-PD1 therapy (10 mg/kg, intraperitoneal, 3 dosages), BGB324 (50 mg/kg, oral gavage, twice daily for 3 weeks) or a combination of both drugs.

[3] = system: Bone marrow derived BMDCs; test: BMDC co-culture with irradiated KPL9-3-1 tumor cells, IFN beta ELISA; assay type: cell-based, mouse; conditions: BGB324 40 nM, 24 h; supernatant ELISA; versus DMSO
Procedure: Bone marrow derived BMDCs (2×10^5) were co-cultured with […] irradiated KPL9-3-1 tumor cells (2×10^6), with or without BGB324 treatment (40 nM). After 24 h, the cell supernatant was collected for analysis. The concentration of […] was measured by VeriKine-HS Mouse IFN Beta Serum ELISA kit (PBL Assay Science, Cat #42410), or VerKine Human IFN Beta ELISA kit (PBL Assay Science, Cat #414101) in accordance with the manufacturer's instructions. The plates were visualized by adding 100 μL of TMB solution and read at 450 nm using the SPECTROstarNano (BMG LABTECH).
The cells were treated with BGB324 or DMSO.

[4] = system: CD8^+ T cell clusters in KPL9-3-1 TME; test: scRNAseq with paired TCR sequencing of CD8^+ T cell clusters in KPL9-3-1 tumors; assay type: in vivo, mouse; conditions: observed versus expected cell number per cluster
Procedure: The immune landscape of the tumors from each treatment group was assessed using scRNAseq of immune cells. Sequenced scRNA-seq samples were processed through Cellranger pipelines (v3.1.0). Cellranger count was used to align reads to mouse reference genome (mm10, 2020-A, from 10× Genomics) and generate single cell feature counts for single library.
For scTCR-seq data, TCR reads were aligned to reference genome and TCR annotation was performed using the 10×cellranger vdj pipeline with provided reference (cellranger-vdj-GRCm38-alts-ensemb1-4.0.0). Overall, 94% of T cells in scRNA-seq data were assigned a TCR and more than 70% had at least one full-length productive CDR3 for both TRA and TRB. The clonotype of each T cell was represented by the beta CDR3 sequences, and clone sizes ranged from 1 cell to 580 cells. Cellranger aggr were applied next to aggregate each sample library for grouped analysis with same effective sequencing depth. Seurat (3.2.1) package was used for downstream analysis.
To determine the potential lineage differentiation between those T cell populations with high TCR sharing. Monocle (version 2.0) (PMID: 24658644) was used to investigate transcriptional and developmental trajectories concerning different CD8+ or CD4+ T cell clusters. The data of raw counts together with cluster annotations were taken as input to monocle, and the default parameters were set to run data normalization and dimension reduction. Next, Monocle leaned the kinetics of gene expression by using the reversed graph embedding approach and places each cell along an inferred pseudotime trajectory. According to the assumption that the trajectory has a tree structure, functional “State” is identified based on the segment of the tree-like structure. […]
Treatment enriched cells in each cluster were calculated and compared based on the number of cells observed divided by expected number of cells in each cluster (FIG. 8D).

[5] = system: TCF1^+PD-1^+ CD8^+ T cells in KPL9-3-1 tumors; test: Tumor microenvironment analysis of KPL9-3-1 tumors (flow cytometry, IHC); assay type: in vivo, mouse (C57BL/6J)
Procedure: as §1
KPL9-3-1 allograft were implanted into mice as described above. 5 mice were assigned into each treatment group. 10 mg/kg anti-PD-1 (BioXCell, Cat #BE0146) treatment was given intraperitoneally on day 0, day 4 and day 7 after treatment. Control group of PD-1 treatment was treated with 10 mg/kg rat IgG2a isotype control (BioX Cell, Cat #BE0089) at the same day of PD-1 treatment, intraperitoneally. BGB324 were given through oral gavage twice daily, with a dose of 50 mg/kg.
For tumor growth measurement experiment, mice were treated for 3 weeks. For tumor microenvironment analysis, mice were treated for 7 days, when the tumor sizes in each treatment group are within 2-fold differences.Seven days after tumor inoculation, mice were treated with either BGB324 or anti-PD-1 alone, or in combination.

[6] = system: TCF1^+PD-1^+ cells among CD8^+ TILs; test: Intratumoral injection of IFNα, TCF1^+PD-1^+ CD8^+ TILs; assay type: in vivo, mouse; conditions: IFNα 200 ng intratumoral, 48 h
Procedure: Tumor tissues were excised and digested with 2 mg/mL Collagenase A (Sigma, Cat #SCR136) and 1 mg/ml DNase I (Roche, Cat #11284932001) under 37° C., 150 rpm shaking speed for 45 min. Digested materials then were transferred to a 70 μm cell strainer to remove clumped cells. Digested cells were washed twice with FACs buffer and ready for flow cytometry analysis.

[7] = system: non-small cell lung cancer; test: Earlier lines of therapy of trial patients 234008 and 211105 (case history); assay type: in vivo, human

Nc1nc(Nc2ccc3c(c2)CC[C@@H](N2CCCC2)CC3)nn1-c1cc2c(nn1)-c1ccccc1CCC2 [BGB324, 1-(6,7-dihydro-5H-benzo[6,7]cyclohepta[1,2-c]pyridazin-3-yl)-N^3-((7-(S)-pyrrolidin-1-yl)-6,7,8,9-tetrahydro-5H-benzo[7]annulene-2-yl)-1H-1,2,4-triazole-3,5-diamine]
tumor growth control (KPL9-3-1 tumor cells): Neither single treatment resulted in tumor growth control | TCF1^+ expression on CD8^+ T cells (OT-1 CD8^+ T cells): increased | tumor sensitivity to therapy (tumor volume) [1]: resistant | tumor sensitivity to therapy (tumor volume) [2]: resistant | secretion of Interferon type 1β (IFNβ) [3]: increased | enrichment of clonal expanded CD8^+ T cells (unique TCRs) [4]: enriched CD8^+ T cells expressing unique TCRs (clonal expanded) significantly | enrichment of exhaustive effector CD8^+ T cells [4]: also enriched | enrichment of stem like T cells [4]: also enriched | infiltration of TCF1+PD-1^+ CD8^+ T cells ([5]; flow cytometry, day 7 after treatment started): increased | TCF1^+PD-1^+ CD8^+ T cell presence in the tumor ([5]; immunohistochemistry): enhanced | distribution of CD8+ cells relative to tumor islands ([5]; immunohistochemistry): large population of CD8+ cells, but these are grouped together, excluded from the tumor islands

IFNα [reference compound]
TCF1^+ expression on CD8^+ T cells (OT-1 CD8^+ T cells): increased | TCF1^+PD-1^+ cells among CD8^+ TILs after intratumoral injection [6]: phenocopied

carboplatin and paclitaxel
duration of response to first-line therapy before progression ([7]; patient 234008): 22 months | response to first-line therapy ([7]; patient 234008, before enrolling in the study): partial response

pembrolizumab: anti-PD-1 antibody, immune checkpoint inhibitor
duration of clinical benefit before progression ([7]; patient 211105, monotherapy after first-line progression): 18 months
